Measured values from patent US6946468B1, “3-mercaptopyrrolidines as farnesyl protein transferase inhibitors” (Zeneca Limited, priority 1996, dated 2005).

Molecular target: T1, Farnesyl protein transferase (FPT) (Homo sapiens, UniProt P49354+P49356)
T1 construct: partially purified from human placenta by ammonium sulphate fractionation; from tissue; host or cells: human placenta
Assay: Farnesyl protein transferase (FPT) inhibition, tritiated farnesyl pyrophosphate incorporation into Kras (ras-CVIM)
Type: biochemical
Conditions: FPT partially purified from human placenta; 300 nM tritiated farnesyl pyrophosphate, 120 nM ras-CVIM, 20 minutes at 37°
Description: Biological activity was tested as follows. Farnesyl protein transferase (FPT) was partially purified from human placenta by ammonium sulphate fractionation followed by a single Q-Sepharose® (Pharmacia, Inc) anion exchange chromatography essentially as described by Ray and Lopez-Belmonte (Ray K P and Lopez-Belmonte J (1992) Biochemical Society Transations 20 494-497). The substrate for FPT was Kras (CVIM C-terminal sequence). The cDNA for oncogenic val12 variant of human c-Ki-ras-2 4B was obtained from the plasmid pSW11-1 (ATCC). This was then subcloned into the polylinker of a suitable expression vector e.g. pIC147. The Kras was obtained after expression in the E. coli strain, BL21. The expression and purification of c-KI-ras-2 4B and the val12 variant in E. coli has also been reported by Lowe et al (Lowe P N et al. J. Biol. Chem. (1991) 266 1672-1678).
Incubations with enzyme contained 300 nM tritiated farnesyl pyrophosphate (DuPont/New England Nuclear), 120 nM ras-CVIM, 50 mM Tris HCl pH 8.0, 5 mM MgCl2, 10 μM ZnCl2, 5 mM dithiotheitol and compounds were added at appropriate concentrations in DMSO (3% final concentration in test and vehicle control). […] Precipitated protein was then collected onto glass fibre filter mats (B) using a Tomte® cell harvester and tritiated label was measured in a Wallac®1204 Betaplate scintillation counter.

`O=C(Cc1cccnc1)N(CC(c1ccccc1)c1ccccc1)C[C@@H]1NCC[C@@H]1S` (relative stereo) [Example 2] gave an IC50 of about 0.42 µM.
